In patent publication US9249128B2 (priority 2010, dated 2016):
Read-outs that look alike come from different tables or passages of the source.

Target: T1, KIAA1363 (Mus musculus, UniProt Q8BLF1)
T1 construct: ABPP analysis of KIAA1363 activity in mouse brain membrane proteome; from tissue; host or cells: mouse brain (membrane fraction)
T1 sequence (Q8BLF1 1-408): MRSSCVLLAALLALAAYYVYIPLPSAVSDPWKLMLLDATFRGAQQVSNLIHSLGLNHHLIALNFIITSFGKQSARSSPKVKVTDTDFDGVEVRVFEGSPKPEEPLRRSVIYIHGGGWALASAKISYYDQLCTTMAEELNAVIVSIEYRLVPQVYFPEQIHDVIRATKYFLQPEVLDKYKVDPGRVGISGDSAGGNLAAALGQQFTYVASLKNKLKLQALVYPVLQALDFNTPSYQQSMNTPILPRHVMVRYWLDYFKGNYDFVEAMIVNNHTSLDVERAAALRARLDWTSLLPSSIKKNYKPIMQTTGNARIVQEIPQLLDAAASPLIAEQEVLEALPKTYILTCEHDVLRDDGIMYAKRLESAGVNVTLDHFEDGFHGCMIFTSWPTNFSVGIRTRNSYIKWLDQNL
Assay: Gel-based competitive ABPP of KIAA1363 in mouse brain membrane proteome (FP-rhodamine)
Assay type: biochemical
Description: In various embodiments, the invention provides a method of inhibiting a serine hydrolase, comprising contacting the hydrolase with a compound of formula (I), e.g., a compound selected from set of compounds shown in Table 1, below. […] IC50 values were derived from ABPP analysis of KIAA1363 activity in mouse brain membrane proteome and are averages of three replicates. Inhibitors were added to the proteome for 30 min before addition of FP-rhodamine (1 μM, 30 min).
Tissues were Dounce-homogenized in PBS, pH 7.4, followed by a low-speed spin (1,400 g, 5 min) to remove debris. The supernatant was then subjected to centrifugation (100,000×g, 45 min) to provide the cytosolic fraction in the supernatant and the unsoluble fraction as a pellet. The pellet was washed and resuspended in PBS buffer by sonication. Total protein concentration in each fraction was determined using a protein assay kit (Bio-Rad). Samples were stored at −80° C. until use.
For ABPP experiments, cell lysate and tissue proteomes were treated with 1 μM FP-rhodamine for 30 min at room temperature (50 μL total reaction volume) as described previously (Nomura et al., 2010). Reactions were quenched with one volume of standard 4×SDS/PAGE loading buffer (reducing), separated by SDS/PAGE (10% acrylamide), and visualized in-gel with a Hitachi FMBio IIe flatbed fluorescence scanner (MiraiBio). Inhibitors were preincubated prior (30 min or 4 h at 37° C. in vitro or in situ, respectively) to the addition of FP-rhodamine.

[1] = mouse brain membrane proteome, inhibitor 30 min before FP-rhodamine (1 μM, 30 min), averages of three replicates, read-out: IC50 (KIAA1363)
[2] = screened against KIAA1363, Table 1, read-out: IC50 values of less than 1 micromolar

SMILES	IC50 [1]	IC50 [2]	IC50
CCOc1ccccc1OC(=O)NCCCc1ccccc1	1790 nM		
Cc1ccc2ccccc2c1OC(=O)NCc1ccc(-c2ccccc2)cc1	> 50000 nM		
CCOc1ccccc1OC(=O)NCc1ccc(-c2ccccc2)cc1	> 50000 nM		
CCOc1ccccc1OC(=O)NCCc1cccs1	> 10000 nM		
CCOc1ccccc1OC(=O)NCCc1ccc2ccccc2c1	890 nM	< 1000 nM	
CC1(C)Cc2cccc(OC(=O)NCc3ccc(I)cc3)c2O1 [JW147, 2,2-dimethyl-2,3-dihydrobenzofuran-7-yl 4-iodobenzylcarbamate]	148 nM	< 1000 nM	
O=C(NCCc1ccc(F)cc1)Oc1ccc(-n2cccc2)cc1 [JW382, 4-(1H-pyrrol-1-yl)phenyl 4-fluorophenethylcarbamate]	1200 nM		
O=C(NCc1ccc(C(F)(F)F)cc1)Oc1ccc(-n2cccc2)cc1 [JW383, 4-(1H-pyrrol-1-yl)phenyl 4-(trifluoromethyl)benzylcarbamate]	997 nM	< 1000 nM	
COc1ccc(CNC(=O)Oc2ccc(-n3cccc3)cc2)cc1 [JW384, 4-(1H-pyrrol-1-yl)phenyl 4-methoxybenzylcarbamate]	668 nM	< 1000 nM	
Cc1ccc2ccccc2c1OC(=O)NCc1ccc(C(F)(F)F)cc1 [JW385, 2-methylnaphthalen-1-yl 4-(trifluoromethyl)benzylcarbamate]	> 50000 nM		
COc1ccc(CNC(=O)Oc2c(C)ccc3ccccc23)cc1 [JW386, 2-methylnaphthalen-1-yl 4-methoxybenzylcarbamate]	> 10000 nM		
CCOc1ccccc1OC(=O)NCc1ccc(C(F)(F)F)cc1 [JW387, 2-ethoxyphenyl 4-(trifluoromethyl)benzylcarbamate]	2820 nM		
CCOc1ccccc1OC(=O)NCc1ccc(OC)cc1 [JW388, 2-ethoxyphenyl 4-methoxybenzylcarbamate]	1610 nM		
O=C(NCc1ccc(OC(F)(F)F)cc1)Oc1ccc(-n2cccc2)cc1 [JW389, 4-(1H-pyrrol-1-yl)phenyl 4-(trifluoromethoxy)benzylcarbamate]	263 nM	< 1000 nM	
Cc1ccc2ccccc2c1OC(=O)NCc1ccc(OC(F)(F)F)cc1 [JW390, 2-methylnaphthalen-1-yl 4-(trifluoromethoxy)benzylcarbamate]	> 10000 nM		
CCOc1ccccc1OC(=O)NCc1ccc(OC(F)(F)F)cc1 [JW391, 2-ethoxyphenyl 4-(trifluoromethoxy)benzylcarbamate]	1050 nM		
O=C(NCc1ccc(Cl)cc1)Oc1ccc(-n2cccc2)cc1 [JW392, 4-(1H-pyrrol-1-yl)phenyl 4-chlorobenzylcarbamate]	385 nM	< 1000 nM	
O=C(NCCCc1ccccc1)Oc1ccc(-n2cccc2)cc1 [JW393, 4-(1H-pyrrol-1-yl)phenyl (3-phenylpropyl)carbamate]	> 50000 nM		
Cc1ccc2ccccc2c1OC(=O)NCc1ccc(Cl)cc1 [JW395, 2-methylnaphthalen-1-yl 4-chlorobenzylcarbamate]	> 50000 nM		
Cc1ccc2ccccc2c1OC(=O)NCCCc1ccccc1 [JW396, 2-methylnaphthalen-1-yl (3-phenylpropyl)carbamate]	> 10000 nM		
CCOc1ccccc1OC(=O)NCc1ccc(Cl)cc1 [JW398, 2-ethoxyphenyl 4-chlorobenzylcarbamate]	977 nM	< 1000 nM	
CCCCc1ccc(CNC(=O)Oc2c(C)ccc3ccccc23)cc1 [JW406, 2-methylnaphthalen-1-yl 4-butylbenzylcarbamate]	> 50000 nM		
CCCCc1ccc(CNC(=O)Oc2ccccc2OCC)cc1 [JW409, 2-ethoxyphenyl 4-butylbenzylcarbamate]	> 50000 nM		
O=C(NCCc1ccc(Br)cc1)Oc1ccc(-n2cccc2)cc1 [JW412, 4-(1H-pyrrol-1-yl)phenyl 4-bromophenethylcarbamate]	1660 nM		
O=C(NCCc1cccs1)Oc1ccc(-n2cccc2)cc1 [JW413, 4-(1H-pyrrol-1-yl)phenyl (2-(thiophen-2-yl)ethyl)carbamate]	618 nM	< 1000 nM	

SMILES	IC50 [1]	IC50 [2]	IC50
O=C(NCCc1ccc2c(c1)OCO2)Oc1ccc(-n2cccc2)cc1 [JW414, 4-(1H-pyrrol-1-yl)phenyl (2-(benzo[d][1,3]dioxol-5-yl)ethyl)carbamate]	> 10000 nM		
Cc1ccc2ccccc2c1OC(=O)NCCc1ccc(Br)cc1 [JW415, 2-methylnaphthalen-1-yl 4-bromophenethylcarbamate]	1080 nM		
Cc1ccc2ccccc2c1OC(=O)NCCc1cccs1 [JW416, 2-methylnaphthalen-1-yl (2-(thiophen-2-yl)ethyl)carbamate]	3310 nM		
Cc1ccc2ccccc2c1OC(=O)NCCc1ccc2c(c1)OCO2 [JW417, 2-methylnaphthalen-1-yl (2-(benzo[d][1,3]dioxol-5-yl)ethyl)carbamate]	142 nM	< 1000 nM	
CCOc1ccccc1OC(=O)NCCc1ccc(Br)cc1 [JW418, 2-ethoxyphenyl 4-bromophenethylcarbamate]	329 nM	< 1000 nM	
CCOc1ccccc1OC(=O)NCCc1ccc2c(c1)OCO2 [JW420, 2-ethoxyphenyl (2-(benzo[d][1,3]dioxol-5-yl)ethyl)carbamate]	1340 nM		
O=C(NCCc1ccc(Cl)c(Cl)c1)Oc1ccc(-n2cccc2)cc1 [JW421, 4-(1H-pyrrol-1-yl)phenyl 3,4-dichlorophenethylcarbamate]	> 10000 nM		
Cc1ccc2ccccc2c1OC(=O)NCCc1ccc(Cl)c(Cl)c1 [JW422, 2-methylnaphthalen-1-yl 3,4-dichlorophenethylcarbamate]	665 nM	< 1000 nM	
CCOc1ccccc1OC(=O)NCCc1ccc(Cl)c(Cl)c1 [JW423, 2-ethoxyphenyl 3,4-dichlorophenethylcarbamate]	498 nM	< 1000 nM	
O=C(NCCN1CCOCC1)Oc1ccc(-n2cccc2)cc1 [JW425, 4-(1H-pyrrol-1-yl)phenyl (2-morpholinoethyl)carbamate]			> 50000 nM
O=C(NCCc1cc2ccccc2[nH]1)Oc1ccc(-n2cccc2)cc1 [JW426, 4-(1H-pyrrol-1-yl)phenyl (2-(1H-indol-2-yl)ethyl)carbamate]	> 50000 nM		
Cc1ccc2ccccc2c1OC(=O)NCCN1CCOCC1 [JW427, 2-methylnaphthalen-1-yl (2-morpholinoethyl)carbamate]			> 50000 nM
Cc1ccc2ccccc2c1OC(=O)NCCc1cc2ccccc2[nH]1 [JW428, 2-methylnaphthalen-1-yl (2-(1H-indol-2-yl)ethyl)carbamate]	3940 nM		
CCOc1ccccc1OC(=O)NCCN1CCOCC1 [JW429, 2-ethoxyphenyl (2-morpholinoethyl)carbamate]			> 50000 nM
CCOc1ccccc1OC(=O)NCCc1cc2ccccc2[nH]1 [JW430, 2-ethoxyphenyl (2-(1H-indol-2-yl)ethyl)carbamate]	> 50000 nM		
COc1ccc(CCNC(=O)Oc2ccc(-n3cccc3)cc2)cc1 [JW431, 4-(1H-pyrrol-1-yl)phenyl 4-methoxyphenethylcarbamate]	1290 nM		
COc1cccc(CCNC(=O)Oc2ccc(-n3cccc3)cc2)c1 [JW432, 4-(1H-pyrrol-1-yl)phenyl 3-methoxyphenethylcarbamate]	> 10000 nM		
O=C(NCCC(c1ccccc1)c1ccccc1)Oc1ccc(-n2cccc2)cc1 [JW433, 4-(1H-pyrrol-1-yl)phenyl (3,3-diphenylpropyl)carbamate]	> 50000 nM		
O=C(NCC(c1ccccc1)c1ccccc1)Oc1ccc(-n2cccc2)cc1 [JW434, 4-(1H-pyrrol-1-yl)phenyl (2,2-diphenylethyl)carbamate]	> 50000 nM		
O=C(NCCc1ccc2ccccc2c1)Oc1ccc(-n2cccc2)cc1 [JW435, 4-(1H-pyrrol-1-yl)phenyl (2-(naphthalen-2-yl)ethyl)carbamate]	> 50000 nM		
COc1ccc(CCNC(=O)Oc2c(C)ccc3ccccc23)cc1 [JW436, 2-methylnaphthalen-1-yl 4-methoxyphenethylcarbamate]	3000 nM		
COc1cccc(CCNC(=O)Oc2c(C)ccc3ccccc23)c1 [JW437, 2-methylnaphthalen-1-yl 3-methoxyphenethylcarbamate]	209 nM	< 1000 nM	
Cc1ccc2ccccc2c1OC(=O)NCCC(c1ccccc1)c1ccccc1 [JW438, 2-methylnaphthalen-1-yl (3,3-diphenylpropyl)carbamate]	> 50000 nM		
Cc1ccc2ccccc2c1OC(=O)NCC(c1ccccc1)c1ccccc1 [JW439, 2-methylnaphthalen-1-yl (2,2-diphenylethyl)carbamate]	> 50000 nM		
